Measured values: article PMC11215778 (Journal of Medicinal Chemistry, 2024)
Like-named read-outs stand apart in the source and are kept apart here.

Legend:
[1] = Cytotoxicity assay (CellTiter-Glo) on normal human dermal fibroblasts; type: cell-based; settings: normal human dermal fibroblasts (NHDF)
Procedure: The cytotoxicity of the compounds was evaluated in nontumor normal human dermal fibroblasts (NHDF) purchased from ATCC (PCS-201-012, Manassas, VA, USA). The cells were negatively tested for the presence of mycoplasma (cat. #: LT07-318 MycoAlert Mycoplasma Detection kit, Lonza). The cells were cultivated in DMEM high glucose 4.5 g/L medium (cat. #: R8758, Merck, Germany). The medium was supplemented with 10% fetal bovine serum (cat. #: F7524, Merck, Germany; inactivated at 56 °C for 30 min) and 1.0% of L-glutamine (cat. #: G7513, Merck, Germany) without antibiotics. Cells were seeded in 384-well format white micro plates (cat. #: 164610, Nunc, Thermo Fisher Scientific, USA) at a concentration of 60,000 cells per mL and left to rest overnight. Next day, 1 and 10 μM concentrations of the tested compounds were added in triplicates. The cells were cultivated at 37 °C and 5% CO2 for 72 h after which a luminescent cell viability assay (CellTiter-Glo 2.0, cat. #: Promega, Madison, USA) was added. The plate was left on a shaker (350 rpm) in the dark for 20 min at RT. Luminescence was measured by a Spark multimode reader from Tecan (Tecan Group Ltd., Switzerland). The signal of the compound-treated cells was related to the value of the untreated control, which was arbitrarily set to 100% viability.

[2] = Plasma stability assay, human plasma; type: in vitro ADME; settings: pooled plasma, read-out: Plasma stability % remaining at 6 h, hum
Procedure: […] The reactions were terminated by adding 4 vol of ice-cold methanol, and the samples were then mixed vigorously, frozen at −20 °C for 1 h, and left overnight at 8 °C. After that, the samples were centrifuged, and the supernatant was analyzed by means of LC–MS/MS Sciex 6500 triple quadrupole (Sciex, Framingham, MA, USA). Zero time points were prepared by adding ice-cold methanol to the compound prior to the addition of the plasma.

[3] = Plasma stability assay, rat plasma; type: in vitro ADME
[4] = Microsomal stability, human liver microsomes; type: in vitro ADME; settings: pooled liver microsomes, pH 7.4; human liver microsomes 0.5 mg/mL, 10 μM compound; read-out: Microsomal stability CLint, hum
Procedure: (§1) . Zero time points were prepared by adding ice-cold methanol to a mixture of the compound with cofactors prior to the addition of microsomes. […]. Intrinsic clearance (CLint) was calculated using the following formula: [drawing 1] where V = incubation volume per milligram of microsomal protein (μL/mg) and t1/2 = microsomal half-life.

[5] = Microsomal stability, rat liver microsomes; type: in vitro ADME; settings: pH 7.4; rat liver microsomes
Procedure: as §1

in vitro = in vitro ADME; settings: human, Caco-2; for Papp A→B at 3 h, 5 µM: read-out: Caco-2 permeability Papp A–B
Procedure: A Transwell system consisting of two compartments separated by a monolayer of differentiated Caco-2 cells was employed for the intestinal permeability evaluation. Thanks to the ability of Caco-2 cells to become polarized, bidirectional transport (A–B and B–A) could be measured and the efflux ratio calculated.
The transepithelial bidirectional transport of tested compounds (5 μM, pH 7.4/7.4) across the Caco-2 monolayers was studied using the BD BioCoat HTS Caco-2 assay system (BD Biosciences, Bedford, MA) as described in detail elsewhere.[47] Aliquots were collected from the donor and acceptor compartment at the end of the transport period (3 h), the integrity of monolayers was verified using Lucifer Yellow dye, and the compounds were quantified using LC–MS/MS (Triple Quad 6500+, Sciex). The apparent permeability coefficient (Papp) was calculated from the following equation: Papp = (dQ/dt)/C0 × A, where dQ/dt is the rate of absorption of the drug across the cells, C0 is the donor compartment concentration at time zero, and A is the area of the monolayer. The efflux ratio was expressed as (Papp B–A)/(Papp A–B). Recovery (%) was determined as (total compound mass in donor and receiver compartments at the end of the incubation/initial compound mass in the donor compartment) × 100.

[6] = 10 uM, read-out: NHDF viability at 10 uM (supplement csv)
[7] = 10 μM, untreated control = 100%, read-out: NHDF Viability 10 μM

Structure (SMILES) | viability at 72 h, 1 µM [1] [%] | viability at 72 h, 10 µM [1, 6] [%] | viability at 72 h, 10 µM [1, 7] [%] | remaining at 6 h, 5 μM ([2]; human) [%] | remaining at 6 h, 5 μM [3] [%] | remaining at 6 h, 5 μM ([2]; human plasma, 5 μM, 37 °C) [%] | microsomal CLint at 10 µM [4] [µL/min/mg] | microsomal CLint at 10 µM [5] [µL/min/mg] | recovery at 3 h, 5 µM (in vitro) [%] | Papp A→B at 3 h, 5 µM (in vitro; 5 μM, pH 7.4/7.4, 3 h) [×10⁻⁶ cm/s] | Papp B→A at 3 h, 5 µM (in vitro; 5 μM, pH 7.4/7.4, 3 h, read-out: Caco-2 permeability Papp B–A) [×10⁻⁶ cm/s]
O=C(OCC1CNC1)[C@@H]1[C@H]2C[C@H]3c4[nH]c5ccccc5c4CCN3C[C@@H]2CC[C@@H]1O [Compound 4f, 17-α-Hydroxyyohimban-16-α-carboxylic Acid Azetidin-3-ylmethyl Ester] | 119 | 119 | 119 |  |  |  |  |  |  |  | 
O=C(OC[C@@H]1CCN1)[C@@H]1[C@H]2C[C@H]3c4[nH]c5ccccc5c4CCN3C[C@@H]2CC[C@@H]1O [Compound 4h, 17-α-Hydroxyyohimban-16-α-carboxylic acid (S)-Azetidin-2-ylmethyl Ester] | 116 | 118 | 118 |  |  |  |  |  |  |  | 
O=C(N[C@H]1CCNC1)[C@@H]1[C@H]2C[C@H]3c4[nH]c5ccccc5c4CCN3C[C@@H]2CC[C@@H]1O [Compound 5a, 17-α-Hydroxyyohimban-16-α-carboxylic Acid (S)-N-(Pyrrolidin-3-yl)amide] | 90 | 88 | 88 | 100 ± 1 | 114 ± 2 |  |  |  |  |  | 
O=C(O[C@@H]1CCNC1)[C@@H]1[C@H]2C[C@H]3c4[nH]c5ccccc5c4CCN3C[C@@H]2CC[C@@H]1O [Compound 4k, 17-α-Hydroxyyohimban-16-α-carboxylic Acid (R)-Pyrrolidin-3-yl Ester] | 99 | 91 | 91 |  | 110 ± 3 | 95 ± 5 | 3 ± 2 | 1 ± 1 | 101 | 1 | 
O=C(OC1CNC1)[C@@H]1[C@H]2C[C@H]3c4[nH]c5ccccc5c4CCN3C[C@@H]2CC[C@@H]1O [Compound 4m, 17-α-Hydroxyyohimban-16-α-carboxylic Acid Azetidin-3-yl Ester] | 77 | 77 | 77 |  | 70 ± 2 | 100 ± 3 | 3 ± 2 |  | 101 | 1 | 
O=C(OC1CCCNC1)[C@@H]1[C@H]2C[C@H]3c4[nH]c5ccccc5c4CCN3C[C@@H]2CC[C@@H]1O (stereo partly drawn) [Compound 4e, 17-α-Hydroxyyohimban-16-α-carboxylic Acid Piperidine-3-yl Ester] | 84 | 82 | 82 |  |  |  |  |  |  |  | 
O=C(O[C@H]1CCNC1)[C@@H]1[C@H]2C[C@H]3c4[nH]c5ccccc5c4CCN3C[C@@H]2CC[C@@H]1O [Compound 4l, 17-α-Hydroxyyohimban-16-α-carboxylic Acid (S)-Pyrrolidin-3-yl Ester] | 100 | 94 | 94 |  | 80 ± 1 | 100 |  |  | 112 | 1 | 
O=C(OC[C@H]1CCNC1)[C@@H]1[C@H]2C[C@H]3c4[nH]c5ccccc5c4CCN3C[C@@H]2CC[C@@H]1O [Compound 4j, 17-α-Hydroxyyohimban-16-α-carboxylic Acid (S)-Pyrrolidin-3-ylmethyl Ester] | 104 | 102 | 102 |  | 76 ± 3 | 92 | 2 | 1 ± 1 |  |  | 
O=C(OC[C@@H]1CCNC1)[C@@H]1[C@H]2C[C@H]3c4[nH]c5ccccc5c4CCN3C[C@@H]2CC[C@@H]1O [Compound 4i, 17-α-Hydroxyyohimban-16-α-carboxylic Acid (R)-Pyrrolidin-3-ylmethyl Ester] | 109 | 107 | 107 |  | 62 ± 7 | 88 ± 3 | 4 ± 1 | 1 ± 1 |  |  | 
O=C(OC[C@@H]1CCCN1)[C@@H]1[C@H]2C[C@H]3c4[nH]c5ccccc5c4CCN3C[C@@H]2CC[C@@H]1O [Compound 4b, 17-α-Hydroxyyohimban-16-α-carboxylic acid (S)-Pyrrolidin-2-ylmethyl Ester] | 112 | 103 | 103 |  |  |  |  |  |  |  | 
N[C@H]1C[C@@H](OC(=O)[C@@H]2[C@H]3C[C@H]4c5[nH]c6ccccc6c5CCN4C[C@@H]3CC[C@@H]2O)C1 [Compound 4o, 17-α-Hydroxyyohimban-16-α-carboxylic Acid cis-3-Aminocyclobutyl Ester] | 84 | 86 | 86 |  | 75 | 97 ± 5 | 2 ± 1 | 3 | 101 | 1 | 
CNCCOC(=O)[C@@H]1[C@H]2C[C@H]3c4[nH]c5ccccc5c4CCN3C[C@@H]2CC[C@@H]1O [Compound 4c, 17-α-Hydroxyyohimban-16-α-carboxylic Acid 2-(Methylamino)ethyl Ester] | 104 | 91 | 91 |  | 80 ± 1 | 91 ± 5 |  |  |  |  | 
O=C(NC1CNC1)[C@@H]1[C@H]2C[C@H]3c4[nH]c5ccccc5c4CCN3C[C@@H]2CC[C@@H]1O [Compound 5b, 17-α-Hydroxyyohimban-16-α-carboxylic Acid N-(Azetidin-3-yl)amide] | 88 | 88 | 88 |  |  |  |  |  |  |  | 
O=C(OC[C@H]1CCN1)[C@@H]1[C@H]2C[C@H]3c4[nH]c5ccccc5c4CCN3C[C@@H]2CC[C@@H]1O [Compound 4g, 17-α-Hydroxyyohimban-16-α-carboxylic Acid (R)-Azetidin-2-ylmethyl Ester] | 120 | 120 | 120 |  | 134 ± 1 | 118 ± 3 | 4 ± 1 | 1 ± 1 |  |  | 
O=C(OC1CCNCC1)[C@@H]1[C@H]2C[C@H]3c4[nH]c5ccccc5c4CCN3C[C@@H]2CC[C@@H]1O [Compound 4d, 17-α-Hydroxyyohimban-16-α-carboxylic Acid Piperidine-4-yl Ester] | 107 | 104 | 104 |  | 87 | 100 ± 1 |  |  | 101 | 1 | 2
O=C(OC[C@H]1CCCN1)[C@@H]1[C@H]2C[C@H]3c4[nH]c5ccccc5c4CCN3C[C@@H]2CC[C@@H]1O [Compound 4a, 17-α-Hydroxyyohimban-16-α-carboxylic acid (R)-Pyrrolidin-2-ylmethyl Ester] | 113 | 106 | 106 |  | 68 | 88 |  |  |  |  | 
